Source: US10206394B2, “Herbicidal compounds” (Syngenta Participations AG, priority 2014, dated 2019)
Read-outs that look alike come from different tables or passages of the source.

Experiments:
Test in all cases: Glasshouse assay for herbicidal activity (pre- and post-emergence), percentage phytotoxicity
Type in all cases: in vivo
[1] = test system: Echinochloa crus-galli (ECHCG); settings: Echinochloa crus-galli
How it was run: (§1)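 Seeds were sown in standard soil in pots and grown one day (pre-emergence) or about 12 days (post-emergence) before herbicide application. Plants were kept at 24/18 °C (warm-climate) or 20/16 °C (cool-climate) day/night, 16 h light, 65% humidity, watered twice daily, and damage was scored visually at 15 DAA (POST) or 20 DAA (PRE).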

[2] = test system: Alopecurus myosuroides (ALOMY); settings: Alopecurus myosuroides
How it was run: as §1

Avena fatua (AVEFA) = settings: Avena fatua
How it was run: as §1

Lolium perenne (LOLPE) = settings: Lolium perenne
How it was run: as §1

[3] = post-emergence, 360 h, 250 g/ha, post-emergence, 15 DAA, visual assessment (100%=total damage, 0%=no damage), read-out: Post-emergence herbicidal activity (percentage phytotoxicity) ECHCG POST
[4] = pre-emergence, 480 h, 250 g/ha, pre-emergence, 20 DAA, visual assessment (100%=total damage, 0%=no damage), read-out: Pre-emergence herbicidal activity (percentage phytotoxicity) ECHCG PRE
[5] = post-emergence, 360 h, 250 g/ha, post-emergence, 15 DAA, visual assessment (100%=total damage, 0%=no damage), read-out: Post-emergence herbicidal activity (percentage phytotoxicity) ALOMY POST
[6] = pre-emergence, 480 h, 250 g/ha, pre-emergence, 20 DAA, visual assessment (100%=total damage, 0%=no damage), read-out: Pre-emergence herbicidal activity (percentage phytotoxicity) ALOMY PRE
[7] = post-emergence, 360 h, 250 g/ha, post-emergence, 15 DAA, visual assessment (100%=total damage, 0%=no damage), read-out: Post-emergence herbicidal activity (percentage phytotoxicity) AVEFA POST
[8] = pre-emergence, 480 h, 250 g/ha, pre-emergence, 20 DAA, visual assessment (100%=total damage, 0%=no damage), read-out: Pre-emergence herbicidal activity (percentage phytotoxicity) AVEFA PRE
[9] = post-emergence, 360 h, 250 g/ha, post-emergence, 15 DAA, visual assessment (100%=total damage, 0%=no damage), read-out: Post-emergence herbicidal activity (percentage phytotoxicity) LOLPE POST
[10] = pre-emergence, 480 h, 250 g/ha, pre-emergence, 20 DAA, visual assessment (100%=total damage, 0%=no damage), read-out: Pre-emergence herbicidal activity (percentage phytotoxicity) LOLPE PRE

SMILES | pest or weed control at 250 g/ha [1, 3] [%] | pest or weed control at 250 g/ha [1, 4] [%] | pest or weed control at 250 g/ha [2, 5] [%] | pest or weed control at 250 g/ha [2, 6] [%] | pest or weed control at 250 g/ha (Avena fatua (AVEFA); [7]) [%] | pest or weed control at 250 g/ha (Avena fatua (AVEFA); [8]) [%] | pest or weed control at 250 g/ha (Lolium perenne (LOLPE); [9]) [%] | pest or weed control at 250 g/ha (Lolium perenne (LOLPE); [10]) [%] | also measured
C=CCNC(=O)CC1CC(=O)C(c2c(C)cc(/C=C/C)cc2C)C1=O (stereo not shown) [Compound B246] |  |  |  |  |  |  |  |  | pest or weed control at 250 g/ha ([1]; post-emergence, 360 h, POST-emergence, rate 250 g/ha, visual score 15 DAA (100%=total damage, 0%=no damage), read-out: Post-emergence herbicidal activity (percentage phytotoxicity) ECHCG POST): 100%; pest or weed control at 250 g/ha ([1]; pre-emergence, 480 h, PRE-emergence, rate 250 g/ha, visual score 20 DAA (100%=total damage, 0%=no damage), read-out: Pre-emergence herbicidal activity (percentage phytotoxicity) ECHCG PRE): 70%; pest or weed control at 250 g/ha ([2]; post-emergence, 360 h, POST-emergence, rate 250 g/ha, visual score 15 DAA (100%=total damage, 0%=no damage), read-out: Post-emergence herbicidal activity (percentage phytotoxicity) ALOMY POST): 100%; pest or weed control at 250 g/ha ([2]; pre-emergence, 480 h, PRE-emergence, rate 250 g/ha, visual score 20 DAA (100%=total damage, 0%=no damage), read-out: Pre-emergence herbicidal activity (percentage phytotoxicity) ALOMY PRE): 60%; pest or weed control at 250 g/ha (Avena fatua (AVEFA); post-emergence, 360 h, POST-emergence, rate 250 g/ha, visual score 15 DAA (100%=total damage, 0%=no damage), read-out: Post-emergence herbicidal activity (percentage phytotoxicity) AVEFA POST): 100%; pest or weed control at 250 g/ha (Avena fatua (AVEFA); pre-emergence, 480 h, PRE-emergence, rate 250 g/ha, visual score 20 DAA (100%=total damage, 0%=no damage), read-out: Pre-emergence herbicidal activity (percentage phytotoxicity) AVEFA PRE): 50%; pest or weed control at 250 g/ha (Lolium perenne (LOLPE); post-emergence, 360 h, POST-emergence, rate 250 g/ha, visual score 15 DAA (100%=total damage, 0%=no damage), read-out: Post-emergence herbicidal activity (percentage phytotoxicity) LOLPE POST): 100%; pest or weed control at 250 g/ha (Lolium perenne (LOLPE); pre-emergence, 480 h, PRE-emergence, rate 250 g/ha, visual score 20 DAA (100%=total damage, 0%=no damage), read-out: Pre-emergence herbicidal activity (percentage phytotoxicity) LOLPE PRE): 90%
Cc1cc(C)c(C2C(=O)CC(CC(=O)NC3(C(F)(F)F)CC3)C2=O)c(C)c1 (stereo not shown) [Compound B138] | 80 | 90 | 90 | 80 | 70 | 0 | 80 | 70 | 
C#CCN(C)C(=O)CC1CC(=O)C(c2c(C)cc(-c3ccc(F)cn3)cc2C)C1=O (stereo not shown) [Compound B394] |  |  |  |  |  |  |  |  | pest or weed control at 250 g/ha ([1]; post-emergence, 360 h, Rate 250 g/ha, post-emergence, visual assessment 15 DAA, 100%=total damage, 0%=no damage, read-out: Post-emergence herbicidal activity (percentage phytotoxicity) ECHCG POST): 100%; pest or weed control at 250 g/ha ([1]; pre-emergence, 480 h, Rate 250 g/ha, pre-emergence, visual assessment 20 DAA, 100%=total damage, 0%=no damage, read-out: Pre-emergence herbicidal activity (percentage phytotoxicity) ECHCG PRE): 100%; pest or weed control at 250 g/ha ([2]; post-emergence, 360 h, Rate 250 g/ha, post-emergence, visual assessment 15 DAA, 100%=total damage, 0%=no damage, read-out: Post-emergence herbicidal activity (percentage phytotoxicity) ALOMY POST): 100%; pest or weed control at 250 g/ha ([2]; pre-emergence, 480 h, Rate 250 g/ha, pre-emergence, visual assessment 20 DAA, 100%=total damage, 0%=no damage, read-out: Pre-emergence herbicidal activity (percentage phytotoxicity) ALOMY PRE): 100%; pest or weed control at 250 g/ha (Avena fatua (AVEFA); post-emergence, 360 h, Rate 250 g/ha, post-emergence, visual assessment 15 DAA, 100%=total damage, 0%=no damage, read-out: Post-emergence herbicidal activity (percentage phytotoxicity) AVEFA POST): 100%; pest or weed control at 250 g/ha (Avena fatua (AVEFA); pre-emergence, 480 h, Rate 250 g/ha, pre-emergence, visual assessment 20 DAA, 100%=total damage, 0%=no damage, read-out: Pre-emergence herbicidal activity (percentage phytotoxicity) AVEFA PRE): 100%; pest or weed control at 250 g/ha (Lolium perenne (LOLPE); post-emergence, 360 h, Rate 250 g/ha, post-emergence, visual assessment 15 DAA, 100%=total damage, 0%=no damage, read-out: Post-emergence herbicidal activity (percentage phytotoxicity) LOLPE POST): 90%; pest or weed control at 250 g/ha (Lolium perenne (LOLPE); pre-emergence, 480 h, Rate 250 g/ha, pre-emergence, visual assessment 20 DAA, 100%=total damage, 0%=no damage, read-out: Pre-emergence herbicidal activity (percentage phytotoxicity) LOLPE PRE): 100%
Cc1cc(-n2cc(Cl)c(C)n2)cc(C)c1C1C(=O)CC(CC(=O)NC(C)(C)C)C1=O (stereo not shown) [Compound B105] | 100 | 100 | 70 | 70 | 60 | 20 | 60 | 70 | 
CCNC(=O)CC1CC(=O)C(c2c(C)cc(-c3ncc(Cl)cc3F)cc2C)C1=O (stereo not shown) [Compound B103] | 100 | 100 | 100 | 100 | 100 | 90 | 100 | 100 | 
